Reference: patent US9393221B2, “Methods and compounds for reducing intracellular lipid storage” (THE GENERAL HOSPITAL CORPORATION, priority 2011, dated 2016)
Where a name gives a salt, the structure may show the parent alone.

The compounds below were run on ATGL-KO iPSCs (assay: High throughput iPSC chemical screening, Oil Red O (ORO) lipid accumulation). Details: glycolytic switch compounds.
Assay type: cell-based, mouse
Throughout, for Z-score: test concentration or dose not given here.

Row | SMILES | Rank in normalized ORO score from screen
1 | Clc1ccc(C(Cn2ccnc2)OCc2csc3c(Cl)cccc23)c(Cl)c1 (centres unmarked) [Sertaconazole nitrate] | 464
2 | Clc1ccc(CSC(Cn2ccnc2)c2ccc(Cl)cc2Cl)cc1 (centres unmarked) [Sulconazole nitrate] | 372
3 | CC/C(=C(\c1ccccc1)c1ccc(OCCN(C)C)cc1)c1ccccc1 [Tamoxifen citrate] | 130
4 | CCC(=O)O[C@H]1CC[C@H]2[C@@H]3CCC4=CC(=O)CC[C@]4(C)[C@H]3CC[C@]12C [Testosterone propionate] | 857

Same assay, conditions: normalized ORO level vs DMSO-treated cells; compound present during 7 days differentiation, 96-well; negative = decrease in lipid accumulation

Row | SMILES | Z-score
5 | NCCc1c[nH]c2ccc(O)cc12 [Serotonin hydrochloride] | −0.8664
6 | Clc1ccc(C(Cn2ccnc2)OCc2csc3c(Cl)cccc23)c(Cl)c1 (centres unmarked) [Sertaconazole nitrate] | −0.4658
7 | CN[C@H]1CC[C@@H](c2ccc(Cl)c(Cl)c2)c2ccccc21 [Sertraline hydrochloride] | −1.6299
8 | CCC(C)(C)C(=O)O[C@H]1C[C@@H](C)C=C2C=C[C@H](C)[C@H](CC[C@@H]3C[C@@H](O)CC(=O)O3)[C@H]21 [Simvastatin] | 15.173
9 | CN[C@@H]1[C@@H](O)[C@@H](O[C@@H]2[C@@H](O)[C@H](O[C@H]3OC(CN)=CC[C@H]3N)[C@@H](N)C[C@H]2N)OC[C@]1(C)O [Sisomicin sulfate] | −0.7041
10 | COc1ccc2c(OC)c3ccoc3nc2c1OC [Skimmianine] | −1.2252
11 | C[C@@H]1CC[C@@]2(NC1)O[C@H]1C[C@H]3[C@@H]4CC=C5C[C@@H](O)CC[C@]5(C)[C@H]4CC[C@]3(C)[C@H]1[C@@H]2C [Solasodine] | −0.5386
12 | CC(C)NCC(O)c1ccc(NS(C)(=O)=O)cc1 (centres unmarked) [Sotalol hydrochloride] | 0.2363
13 | CC(=O)N[C@@H](CC(=O)N[C@@H](CCC(=O)O)C(=O)O)C(=O)O [Spaglumic acid] | 0.9666
14 | C1CCN2C[C@@H]3C[C@@H](CN4CCCC[C@@H]34)[C@H]2C1 [Sparteine (−)] | −0.3524
15 | CN[C@@H]1[C@H](O)[C@H](NC)[C@H]2O[C@@]3(O)C(=O)C[C@@H](C)O[C@H]3O[C@@H]2[C@H]1O [Spectinomycin dihydrochloride] | −0.1287
16 | O=C(CCCN1CCC2(CC1)C(=O)NCN2c1ccccc1)c1ccc(F)cc1 [Spiperone] | −1.6819
17 | CC(=O)S[C@@H]1CC2=CC(=O)CC[C@]2(C)[C@H]2CC[C@@]3(C)[C@@H](CC[C@@]34CCC(=O)O4)[C@H]12 [Spironolactone] | −1.7632
18 | C[N+]1(C)CCC[C@H]1C(=O)[O-].Cl [Stachydrine hydrochloride] | 0.2248
19 | [H]/N=C(/N)N[C@H]1[C@H](O)[C@@H](O)[C@H](O[C@@H]2O[C@@H](C)[C@](O)(C=O)[C@H]2O[C@@H]2O[C@@H](CO)[C@H](O)[C@@H](O)[C@@H]2NC)[C@@H](N/C(N)=N\[H])[C@@H]1O [Streptomycin sulfate] | 1.417
20 | C[C@]12CC[C@H]3[C@@H](CC[C@]4(O)C[C@@H](O)CC[C@]34C=O)[C@@]1(O)CC[C@@H]2C1=CC(=O)OC1 [Strophanthidin] | 0.6732
21 | C[C@@H]1O[C@@H](O[C@H]2C[C@@H](O)[C@]3(CO)[C@H]4[C@H](O)C[C@]5(C)[C@@H](C6=CC(=O)OC6)CC[C@]5(O)[C@@H]4CC[C@]3(O)C2)[C@H](O)[C@H](O)[C@H]1O.O.O.O.O.O.O.O.O [Strophantine octahydrate] | 3.188
22 | O=C(O)CCC(=O)Nc1ccc(S(=O)(=O)Nc2nccs2)cc1 [Succinylsulfathiazole] | 1.139
23 | Clc1ccc(CSC(Cn2ccnc2)c2ccc(Cl)cc2Cl)cc1 (centres unmarked) [Sulconazole nitrate] | −0.6576
24 | Nc1ccc(S(=O)(=O)NC(=O)c2ccccc2)cc1 [Sulfabenzamide] | 1.96
25 | CC(=O)[N-]S(=O)(=O)c1ccc(N)cc1.O.[Na+] [Sulfacetamide sodic hydrate] | −0.3059
26 | Nc1ccc(S(=O)(=O)Nc2ccc(Cl)nn2)cc1 [Sulfachloropyridazine] | 1.134
27 | Nc1ccc(S(=O)(=O)Nc2ncccn2)cc1 [Sulfadiazine] | 0.09783
28 | COc1cc(NS(=O)(=O)c2ccc(N)cc2)nc(OC)n1 [Sulfadimethoxine] | 0.4077
29 | COc1ncnc(NS(=O)(=O)c2ccc(N)cc2)c1OC [Sulfadoxine] | −0.1202

Row | SMILES | Z-score
30 | [H]/N=C(/N)NS(=O)(=O)c1ccc(N)cc1 [Sulfaguanidine] | 1.05
31 | Cc1ccnc(NS(=O)(=O)c2ccc(N)cc2)n1 [Sulfamerazine] | −0.0984
32 | COc1cnc(NS(=O)(=O)c2ccc(N)cc2)nc1 [Sulfameter] | −0.1501
33 | Cc1cc(C)nc(NS(=O)(=O)c2ccc(N)cc2)n1 [Sulfamethazine sodium salt] | 1.431
34 | Cc1nnc(NS(=O)(=O)c2ccc(N)cc2)s1 [Sulfamethizole] | −0.7734
35 | Cc1cc(NS(=O)(=O)c2ccc(N)cc2)no1 [Sulfamethoxazole] | −0.4061
36 | COc1ccc(NS(=O)(=O)c2ccc(N)cc2)nn1 [Sulfamethoxypyridazine] | −0.0234
37 | COc1cc(NS(=O)(=O)c2ccc(N)cc2)ncn1 [Sulfamonomethoxine] | −1.3171
38 | Nc1ccc(S(N)(=O)=O)cc1 [Sulfanilamide] | 0.2959
39 | Nc1ccc(S(=O)(=O)Nc2ccnn2-c2ccccc2)cc1 [Sulfaphenazole] | −0.2854
40 | Nc1ccc(S(=O)(=O)Nc2ccccn2)cc1 [Sulfapyridine] | 0.5256
41 | Nc1ccc(S(=O)(=O)Nc2cnc3ccccc3n2)cc1 [Sulfaquinoxaline sodium salt] | 0.579
42 | O=C(O)c1cc(/N=N/c2ccc(S(=O)(=O)Nc3ccccn3)cc2)ccc1O [Sulfasalazine] | −1.0569
43 | Nc1ccc(S(=O)(=O)Nc2nccs2)cc1 [Sulfathiazole] | 0.1226
44 | O=C1C(CC[S+]([O-])c2ccccc2)C(=O)N(c2ccccc2)N1c1ccccc1 (centres unmarked) [Sulfinpyrazone] | −1.4016
45 | Cc1noc(NS(=O)(=O)c2ccc(N)cc2)c1C [Sulfisoxazole] | −0.0512
46 | CC1=C(CC(=O)O)c2cc(F)ccc2/C1=C\c1ccc([S+](C)[O-])cc1 (centres unmarked) [Sulindac] | 1.451
47 | COc1cc([S+](C)[O-])ccc1-c1nc2ncccc2[nH]1 (centres unmarked) [Sulmazole] | 0.4097
48 | CCCCCCCCNC(C)C(O)c1ccc(SC(C)C)cc1 (centres unmarked) [Suloctidil] | 21.8147
49 | CCN1CCCC1CNC(=O)c1cc(S(N)(=O)=O)ccc1OC (centres unmarked) [Sulpiride] | −0.2187
50 | CC(C(=O)O)c1ccc(C(=O)c2cccs2)cc1 (centres unmarked) [Suprofen] | −0.7501
51 | CCCCC1(COC(=O)CCC(=O)O)C(=O)N(c2ccccc2)N(c2ccccc2)C1=O [Suxibuzone] | −1.3282
52 | CCOC(=O)Oc1c(OC)cc(C(=O)O[C@@H]2C[C@@H]3CN4CCc5c([nH]c6cc(OC)ccc56)[C@H]4C[C@@H]3[C@H](C(=O)OC)[C@H]2OC)cc1OC [Syrosingopine] | 0.3519
53 | Cl.O=c1[nH]oc2c1CCNC2 [THIP Hydrochloride] | −1.3776
54 | Nc1c2c(nc3ccccc13)CCCC2 [Tacrine hydrochloride hydrate] | −2.143

Row | SMILES | Z-score
55 | CC1(C)S[C@@H]2[C@H](NC(=O)[C@H](N)c3ccccc3)C(=O)N2[C@H]1C(=O)OC1OC(=O)c2ccccc21 (some centres unmarked) [Talampicillin hydrochloride] | −0.9508
56 | CC/C(=C(\c1ccccc1)c1ccc(OCCN(C)C)cc1)c1ccccc1 [Tamoxifen citrate] | −1.1882
57 | Cc1scc2c1N(C(=O)CN1CCN(C)CC1)c1ccccc1NC2=O [Telenzepine dihydrochloride] | 0.2257
58 | CN1C(C(=O)Nc2ccccn2)=C(O)c2sccc2S1(=O)=O [Tenoxicam] | −0.5016
59 | COc1cc2nc(N3CCN(C(=O)C4CCCO4)CC3)nc(N)c2cc1OC (centres unmarked) [Terazosin hydrochloride] | −0.0723
60 | CC(C)N1CCN(c2ccc(OCC3COC(Cn4cncn4)(c4ccc(Cl)cc4Cl)O3)cc2)CC1 (centres unmarked) [Terconazole] | −0.3786
61 | CC(C)(C)c1ccc(C(O)CCCN2CCC(C(O)(c3ccccc3)c3ccccc3)CC2)cc1 (centres unmarked) [Terfenadine] | −0.8896
62 | CCC(=O)O[C@H]1CC[C@H]2[C@@H]3CCC4=CC(=O)CC[C@]4(C)[C@H]3CC[C@]12C [Testosterone propionate] | 0.7489
63 | CCCCNc1ccc(C(=O)OCCN(C)C)cc1.Cl [TetracaOne hydrochloride] | −0.5979
64 | CN(C)[C@@H]1C(O)=C(C(N)=O)C(=O)[C@@]2(O)C(O)=C3C(=O)c4c(O)cccc4[C@@](C)(O)[C@H]3C[C@@H]12 [Tetracycline hydrochloride] | −0.2579
65 | O.O=C1C(O)=C(O)C(=O)C(O)=C1O [Tetrahydroxy-1,4-quinone monohydrate] | −1.5885
66 | c1ccc2c(c1)CCCC2C1=NCCN1 (centres unmarked) [Tetrahydrozoline hydrochloride] | −0.9102
67 | c1ccc(C2CN3CCSC3=N2)cc1 (centres unmarked) [Tetramisole hydrochloride] | 0.1333
68 | COc1ccc2cc1Oc1ccc(cc1)C[C@H]1c3cc(c(OC)cc3CCN1C)Oc1c(OC)c(OC)cc3c1[C@H](C2)N(C)CC3 [Tetrandrine] | −1.1905
69 | O=C1CCC(N2C(=O)c3ccccc3C2=O)C(=O)N1 (centres unmarked) [Thalidomide] | −1.026
70 | Cn1cnc2c1c(=O)[nH]c(=O)n2C [Theobromine] | 0.09359
71 | Cn1c(=O)c2[nH]cnc2n(C)c1=O.O [Theophylline monohydrate] | 0.7001
72 | Cc1ncc(C[n+]2csc(CCO)c2C)c(N)n1 [Thiamine hydrochloride] | 1.576
73 | CS(=O)(=O)c1ccc([C@@H](O)[C@@H](CO)NC(=O)C(Cl)Cl)cc1 [Thiamphenicol] | 16.8903
74 | COc1c(O[C@@H]2O[C@H](CO)[C@@H](O)[C@H](O)[C@H]2O)cc2c(c1OC)-c1ccc(SC)c(=O)cc1[C@@H](NC(C)=O)CC2 [Thiocolchicoside] | 11.5611
75 | S=C(NC1CCCCC1)N1CCC(c2cnc[nH]2)CC1 [Thioperamide maleate] | −0.6114
76 | CSc1ccc2c(c1)N(CCC1CCCCN1C)c1ccccc1S2 (centres unmarked) [Thioridazine hydrochloride] | −1.1212
77 | O=C(O)CNC(=O)C(CS)Cc1ccccc1 (centres unmarked) [Thiorphan] | 1.245
